In patent US20220119354A1, “DIAMINO-SUBSTITUTED PYRIDINES AND PYRIMIDINES AS HERBICIDES” (FMC Corporation, priority 2019, published 2022):

What was measured:
Assay type in all cases: in vivo
[1] = test system: pigweed (Amaranthus retroflexus); experiment: Test A preemergence, pigweed; details: 0 to 100 scale; for Pigweed plant response rating: 125 g ai/ha, 0 is no effect, 100 is complete control; for Plant response rating, Pigweed: 500 g ai/ha
Procedure, shortened: (§1)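 0–100 visual control rating, ~10 d post-treatment, greenhouse. Pre = directed soil spray on seeded loam/sand; post = spray at 1–2 leaf stage. Surfactant-containing solvent formulation.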

[2] = test system: ducksalad (Heteranthera limosa); experiment: Test B flooded paddy test, ducksalad; details: Flood, 250 g ai/ha, applied to paddy water, 2-leaf stage, visual evaluation after 13 to 15 d
Procedure, shortened: (§2)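 Each response is a visual 0–100 rating made against untreated controls, where 0 is no effect and 100 is complete control; a dash marks no result. Compound was dosed into 3 cm paddy water over 2-leaf plants, assessed after 13 to 15 d.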

[3] = test system: ragweed (common ragweed, Ambrosia elatior); experiment: Test A preemergence, ragweed; details: 0 to 100 scale; for Ragweed plant response rating: 125 g ai/ha, 0 is no effect, 100 is complete control; for Plant response rating, Ragweed: 500 g ai/ha
Procedure, shortened: as §1

[4] = test system: barnyardgrass (Echinochloa crus-galli); experiment: Test B flooded paddy test, barnyardgrass; details: Flood, 250 g ai/ha, applied to paddy water, 2-leaf stage, visual evaluation after 13 to 15 d
Procedure, shortened: as §2

rice (Oryza sativa) = experiment: Test B flooded paddy test, rice; details: Flood, 250 g ai/ha, applied to paddy water, 2-leaf stage, visual evaluation after 13 to 15 d
Procedure, shortened: as §2

[5] = test system: foxtail, giant (Setaria faberii); experiment: Test A postemergence, giant foxtail; details: 0 to 100 scale
Procedure, shortened: as §1

[6] = test system: ryegrass, Italian (Lolium multiflorum); experiment: Test A postemergence, Italian ryegrass; details: 0 to 100 scale
Procedure, shortened: as §1

[7] = test system: pigweed (Amaranthus retroflexus); experiment: Test A postemergence, pigweed; details: 0 to 100 scale
Procedure, shortened: as §1

[8] = test system: barnyardgrass (Echinochloa crus-galli); experiment: Test A preemergence, barnyardgrass; details: 0 to 100 scale; for Barnyardgrass plant response rating: 125 g ai/ha, 0 is no effect, 100 is complete control; for Plant response rating, Barnyardgrass: 500 g ai/ha
Procedure, shortened: as §1

[9] = test system: sedge, umbrella (small-flower umbrella sedge, Cyperus difformis); experiment: Test B flooded paddy test, umbrella sedge; details: Flood, 250 g ai/ha, applied to paddy water, 2-leaf stage, visual evaluation after 13 to 15 d
Procedure, shortened: as §2

[10] = test system: ragweed (common ragweed, Ambrosia elatior); experiment: Test A postemergence, ragweed; details: 0 to 100 scale
Procedure, shortened: as §1

[11] = test system: blackgrass (Alopecurus myosuroides); experiment: Test A postemergence, blackgrass; details: 0 to 100 scale
Procedure, shortened: as §1

kochia (Kochia scoparia) [12] = experiment: Test A preemergence, kochia; details: 0 to 100 scale; for Kochia plant response rating: 125 g ai/ha, 0 is no effect, 100 is complete control; for Plant response rating, Kochia: 500 g ai/ha
Procedure, shortened: as §1

[13] = test system: wheat (Triticum aestivum); experiment: Test A postemergence, wheat; details: 0 to 100 scale
Procedure, shortened: as §1

[14] = test system: galium (catchweed bedstraw, Galium aparine); experiment: Test A postemergence, galium; details: 0 to 100 scale
Procedure, shortened: as §1

[15] = test system: barnyardgrass (Echinochloa crus-galli); experiment: Test A postemergence, barnyardgrass; details: 0 to 100 scale
Procedure, shortened: as §1

[16] = test system: ryegrass, Italian (Lolium multiflorum); experiment: Test A preemergence, Italian ryegrass; details: 0 to 100 scale; for Ryegrass, Italian plant response rating: 125 g ai/ha, 0 is no effect, 100 is complete control; for Plant response rating, Ryegrass, Italian: 500 g ai/ha
Procedure, shortened: as §1

kochia (Kochia scoparia) [17] = experiment: Test A postemergence, kochia; details: 0 to 100 scale
Procedure, shortened: as §1

[18] = test system: foxtail, giant (Setaria faberii); experiment: Test A preemergence, giant foxtail; details: 0 to 100 scale; for Foxtail, Giant plant response rating: 125 g ai/ha, 0 is no effect, 100 is complete control; for Plant response rating, Foxtail, Giant: 500 g ai/ha
Procedure, shortened: as §1

corn (Zea mays) = experiment: Test A postemergence, corn; details: 0 to 100 scale
Procedure, shortened: as §1

## CC(COc1cccc(C(F)(F)F)c1)Nc1ncc(C(F)(F)F)c(N)n1 (stereo not drawn) [Compound 34]
[1]
  Pigweed plant response rating: 10
  Plant response rating, Pigweed: 90
[2]
  Plant response rating, Ducksalad (0 to 100 scale, 0 is no effect, 100 is complete control): 0
[3]
  Ragweed plant response rating: 20
  Plant response rating, Ragweed: 80
[4]
  Plant response rating, Barnyardgrass (0 to 100 scale, 0 is no effect, 100 is complete control): 0
Rice (Oryza sativa)
  Plant response rating, Rice (0 to 100 scale, 0 is no effect, 100 is complete control): 0
[5]; 125 g ai/ha
  Plant response rating, Foxtail, Giant: 0
[5]; 500 g ai/ha
  Plant response rating, Foxtail, Giant: 30
[6]; 125 g ai/ha
  Plant response rating, Ryegrass, Italian: 0
[6]; 500 g ai/ha
  Plant response rating, Ryegrass, Italian: 60
[7]; 125 g ai/ha
  Plant response rating, Pigweed: 0
[7]; 500 g ai/ha
  Plant response rating, Pigweed: 60
[8]
  Barnyardgrass plant response rating: 80
  Plant response rating, Barnyardgrass: 100
[9]
  Plant response rating, Sedge, Umbrella (0 to 100 scale, 0 is no effect, 100 is complete control): 0
[10]; 125 g ai/ha
  Plant response rating, Ragweed: 0
[10]; 500 g ai/ha
  Plant response rating, Ragweed: 0
[11]; 125 g ai/ha
  Plant response rating, Blackgrass: 0
[11]; 500 g ai/ha
  Plant response rating, Blackgrass: 30
Kochia (Kochia scoparia) [12]
  Kochia plant response rating: 0
  Plant response rating, Kochia: 80
[13]; 125 g ai/ha
  Plant response rating, Wheat: 0
[13]; 500 g ai/ha
  Plant response rating, Wheat: 0
[14]; 125 g ai/ha
  Plant response rating, Galium: 30
[14]; 500 g ai/ha
  Plant response rating, Galium: 70
[15]; 125 g ai/ha
  Plant response rating, Barnyardgrass: 0
[15]; 500 g ai/ha
  Plant response rating, Barnyardgrass: 20
[16]
  Ryegrass, Italian plant response rating: 0
  Plant response rating, Ryegrass, Italian: 30
Kochia (Kochia scoparia) [17]; 125 g ai/ha
  Plant response rating, Kochia: 30
Kochia (Kochia scoparia) [17]; 500 g ai/ha
  Plant response rating, Kochia: 70
[18]
  Foxtail, Giant plant response rating: 50
  Plant response rating, Foxtail, Giant: 90
Corn (Zea mays); 125 g ai/ha
  Plant response rating, Corn: 0
Corn (Zea mays); 500 g ai/ha
  Plant response rating, Corn: 10

## CC(COc1cc(Cl)cc(Cl)c1)Nc1ncc(C(F)(F)F)c(N)n1 (stereo not drawn) [Compound 35]
[1]
  Pigweed plant response rating: 0
  Plant response rating, Pigweed: 0
[2]
  Plant response rating, Ducksalad (0 to 100 scale, 0 is no effect, 100 is complete control): 0
[3]
  Ragweed plant response rating: 0
  Plant response rating, Ragweed: 0
[4]
  Plant response rating, Barnyardgrass (0 to 100 scale, 0 is no effect, 100 is complete control): 0
Rice (Oryza sativa)
  Plant response rating, Rice (0 to 100 scale, 0 is no effect, 100 is complete control): 0
[5]; 125 g ai/ha
  Plant response rating, Foxtail, Giant: 0
[5]; 500 g ai/ha
  Plant response rating, Foxtail, Giant: 0
[6]; 125 g ai/ha
  Plant response rating, Ryegrass, Italian: 40
[6]; 500 g ai/ha
  Plant response rating, Ryegrass, Italian: 30
[7]; 125 g ai/ha
  Plant response rating, Pigweed: 0
[7]; 500 g ai/ha
  Plant response rating, Pigweed: 50
[8]
  Barnyardgrass plant response rating: 0
  Plant response rating, Barnyardgrass: 0
[9]
  Plant response rating, Sedge, Umbrella (0 to 100 scale, 0 is no effect, 100 is complete control): 0
[10]; 125 g ai/ha
  Plant response rating, Ragweed: 0
[10]; 500 g ai/ha
  Plant response rating, Ragweed: 0
[11]; 125 g ai/ha
  Plant response rating, Blackgrass: 0
[11]; 500 g ai/ha
  Plant response rating, Blackgrass: 0
Kochia (Kochia scoparia) [12]
  Kochia plant response rating: 0
  Plant response rating, Kochia: 40
[13]; 125 g ai/ha
  Plant response rating, Wheat: 0
[13]; 500 g ai/ha
  Plant response rating, Wheat: 0
[14]; 125 g ai/ha
  Plant response rating, Galium: 0
[14]; 500 g ai/ha
  Plant response rating, Galium: 60
[15]; 125 g ai/ha
  Plant response rating, Barnyardgrass: 20
[15]; 500 g ai/ha
  Plant response rating, Barnyardgrass: 0
[16]
  Ryegrass, Italian plant response rating: 0
  Plant response rating, Ryegrass, Italian: 0
Kochia (Kochia scoparia) [17]; 125 g ai/ha
  Plant response rating, Kochia: 0
Kochia (Kochia scoparia) [17]; 500 g ai/ha
  Plant response rating, Kochia: 20
[18]
  Foxtail, Giant plant response rating: 0
  Plant response rating, Foxtail, Giant: 0
Corn (Zea mays); 125 g ai/ha
  Plant response rating, Corn: 0
Corn (Zea mays); 500 g ai/ha
  Plant response rating, Corn: 0

## CC(COc1cc(F)c(F)c(F)c1)Nc1ncc(C(F)(F)F)c(N)n1 (stereo not drawn) [Compound 36]
[1]
  Pigweed plant response rating: 0
  Plant response rating, Pigweed: 0
[2]
  Plant response rating, Ducksalad (0 to 100 scale, 0 is no effect, 100 is complete control): 0
[3]
  Ragweed plant response rating: 0
  Plant response rating, Ragweed: 0
[4]
  Plant response rating, Barnyardgrass (0 to 100 scale, 0 is no effect, 100 is complete control): 0
Rice (Oryza sativa)
  Plant response rating, Rice (0 to 100 scale, 0 is no effect, 100 is complete control): 0
[5]; 125 g ai/ha
  Plant response rating, Foxtail, Giant: 0
[5]; 500 g ai/ha
  Plant response rating, Foxtail, Giant: 0
[6]; 125 g ai/ha
  Plant response rating, Ryegrass, Italian: 0
[6]; 500 g ai/ha
  Plant response rating, Ryegrass, Italian: 0
[7]; 125 g ai/ha
  Plant response rating, Pigweed: 0
[7]; 500 g ai/ha
  Plant response rating, Pigweed: 0
[8]
  Barnyardgrass plant response rating: 0
  Plant response rating, Barnyardgrass: 0
[9]
  Plant response rating, Sedge, Umbrella (0 to 100 scale, 0 is no effect, 100 is complete control): 0
[10]; 125 g ai/ha
  Plant response rating, Ragweed: 0
[10]; 500 g ai/ha
  Plant response rating, Ragweed: 0
[11]; 125 g ai/ha
  Plant response rating, Blackgrass: 0
[11]; 500 g ai/ha
  Plant response rating, Blackgrass: 0
Kochia (Kochia scoparia) [12]
  Kochia plant response rating: 70
  Plant response rating, Kochia: 30
[13]; 125 g ai/ha
  Plant response rating, Wheat: 0
[13]; 500 g ai/ha
  Plant response rating, Wheat: 0
[14]; 125 g ai/ha
  Plant response rating, Galium: 0
[14]; 500 g ai/ha
  Plant response rating, Galium: 0
[15]; 125 g ai/ha
  Plant response rating, Barnyardgrass: 0
[15]; 500 g ai/ha
  Plant response rating, Barnyardgrass: 0
[16]
  Ryegrass, Italian plant response rating: 0
  Plant response rating, Ryegrass, Italian: 0
Kochia (Kochia scoparia) [17]; 125 g ai/ha
  Plant response rating, Kochia: 0
Kochia (Kochia scoparia) [17]; 500 g ai/ha
  Plant response rating, Kochia: 0
[18]
  Foxtail, Giant plant response rating: 0
  Plant response rating, Foxtail, Giant: 0
Corn (Zea mays); 125 g ai/ha
  Plant response rating, Corn: 10
Corn (Zea mays); 500 g ai/ha
  Plant response rating, Corn: 0
